# Test results: ChEMBL document CHEMBL3632588 (Medchemcomm, 2015)
# What was measured:
# [1] = Cytotoxicity in mouse NMuMG cells assessed as cell growth at 20 uM after 72 hrs by colorimetry; format: cell-based; details: read-out: Activity
# [2] = Antiproliferative activity against mouse LM3 cells after 72 hrs by colorimetry; format: functional, cell-based; details: LM3, 72 h
# [3] = tested on: MCF7; assay: Antiproliferative activity against human MCF7 cells after 72 hrs by colorimetry; format: functional, cell-based; details: MCF7, 72 h
# [4] = Antiproliferative activity against mouse B16F0 cells after 72 hrs by colorimetry; format: functional, cell-based; details: B16F0, 72 h
# [5] = Cytotoxicity in mouse NMuMG cells after 72 hrs by colorimetry; format: cell-based
# [6] = tested on: MCF7; assay: Ratio of IC50 for mouse NMuMG cells to IC50 for human MCF7 cells
# [7] = Ratio of IC50 for mouse NMuMG cells to IC50 for mouse B16F0 cells
# [8] = tested on: HeLa; assay: Antiproliferative activity against human HeLa cells after 72 hrs by colorimetry; format: functional, cell-based
# [9] = Antiproliferative activity against mouse LM3 cells assessed as cell growth at 20 uM after 72 hrs by colorimetry; format: functional; details: LM3, 72 h, read-out: Activity
# [10] = tested on: MCF7; assay: Antiproliferative activity against human MCF7 cells assessed as cell growth at 20 uM after 72 hrs by colorimetry; format: functional; details: MCF7, 72 h, read-out: Activity
# [11] = tested on: HeLa; assay: Ratio of IC50 for mouse NMuMG cells to IC50 for human HeLa cells
# [12] = Antiproliferative activity against mouse B16F0 cells assessed as cell growth at 20 uM after 72 hrs by colorimetry; format: functional; details: B16F0, 72 h, read-out: Activity
# [13] = tested on: HeLa; assay: Antiproliferative activity against human HeLa cells assessed as cell growth at 20 uM after 72 hrs by colorimetry; format: functional; details: read-out: Activity
# [14] = Ratio of IC50 for mouse NMuMG cells to IC50 for mouse […] cells
SMILES,"viability at 72 h, 20 µM [1]",IC50 [2],IC50 [3],IC50 [4],IC50 [5],Ratio IC50 [6],Ratio IC50 [7],IC50 [8],growth at 20 µM [9],growth at 20 µM [10],Ratio IC50 [11],growth at 20 µM [12],growth at 20 µM [13],Ratio IC50 [14]
COC(=O)[C@@H]1N2C(=O)C(Br)(Br)[C@H]2S(=O)(=O)[C@@]1(C)CCl,35%,,,,,,,,,,,,,
COC(=O)[C@@H]1N2C(=O)C(Br)(Br)[C@H]2S[C@@]1(C)CSc1nc(-c2ccccc2)c(-c2ccccc2)o1,55%,14 µM,18 µM,11 µM,31 µM,1.7,2.8,7 µM,35%,27%,4.4,38%,7%,2.2
COC(=O)[C@@H]1N2C(=O)[C@H](Cl)[C@H]2S[C@@]1(C)CSc1nc2ccccc2s1,55%,20 µM,,18 µM,36 µM,,2,18 µM,55%,66%,2,48%,44%,1.8
COC(=O)[C@@H]1N2C(=O)[C@H](Cl)[C@H]2S[C@@]1(C)CSc1nc(-c2ccccc2)c(-c2ccccc2)o1,55%,,,,32 µM,,,13 µM,65%,87%,2.5,65%,27%,
COC(=O)[C@@H]1N2C(=O)[C@H](Cl)[C@H]2S[C@@]1(C)CSc1nc2ccccc2o1,65%,,,,,,,,87%,84%,,68%,68%,
CCOc1ccc2nc(SC[C@]3(C)S[C@@H]4[C@@H](Cl)C(=O)N4[C@H]3C(=O)OC)sc2c1,64%,24 µM,,27 µM,43 µM,,1.6,24 µM,49%,65%,1.8,52%,56%,1.8
COC(=O)[C@@H]1N2C(=O)[C@H](Cl)[C@H]2S[C@@]1(C)CSC1=NCCS1,65%,20 µM,,,41 µM,,,19 µM,54%,87%,2.2,71%,48%,2
CCOc1ccc2nc(SC[C@@]3(C)[C@H](C(=O)OC)N4C(=O)[C@H](Cl)[C@H]4S3(=O)=O)sc2c1,8%,,,,,,,,,,,,,
